Reference: BigSolDB 2.1

Conditions: in water

O=C(O)CCCC(=O)O
Conditions | solubility (mole fraction)
288.05 K | 0.125
292.95 K | 0.151
297.85 K | 0.176
303.25 K | 0.204
308.05 K | 0.232
312.95 K | 0.26
318.05 K | 0.297
322.25 K | 0.328
326.75 K | 0.361
330.85 K | 0.4
